“And” between values parts separate entries of the source, which are not always exact repeats. Identical values can stand only once.
Columns and labels:
[1] = Pharmacokinetics of CNS-102 in rats (IV, oral); format: in vivo; details: rat, 24 mg/kg oral
Protocol: Rats were administered a single dose of CNS-102 either intravenously (12 mg/kg) or orally (24 mg/kg), and blood samples were taken to measure the average plasma concentrations of CNS-102 over time.
The formulation for this study includes the following: […]
Formulations: (Dose: 24 mg/kg; Study Date: 4-16-2012)

[2] = test system: Murine neuro2A neuroblastoma cells; assay: Neurite outgrowth of neuro2A cells with GGTI-298 (Example 30); format: cell-based, mouse
Protocol: Differentiation was induced and cells incubated with geranylgeranyl transferase I inhibitor, GGTI-298. After 24 h digital images were taken and neurite outgrowth was quantified. The comparisons of the neuroprotective effect of these three compounds are shown below.
The estimated mean log10 counts, from five replicate wells for each treatment group were calculated by PROC GLM in SAS assuming a pooled estimate of variation.
The estimated mean log 10 counts from five replicate wells for each treatment group were calculated by PROC GLM in SAS assuming a pooled estimate of variation.
Differences in mean log(counts) between treatments for each concentration were calculated using PROC GLM in SAS. The p-value given is for the comparison of the estimated difference to zero, the expected difference value for no treatment effect. The anti-log of the differences represent the estimated ratio of counts (relative effect on inhibition) and are tabulated below along with the lower and upper 95% confidence intervals.

HSP70 [3] = assay: HSP70 gene expression in rat brain tissue, qRT-PCR; format: in vivo; details: 12 mg/kg oral
Protocol: […] Expression of selected HSPs was detected using qRT-PCR with expression of the GAPDH gene used as the control. To represent the effect of CNS-102 on HSP expression, mean fold change is calculated as CNS-102 treated/PBS treated for each HSP at each time point.

SOD1 mice = assay: Survival in the SOD1 mouse model of ALS; format: in vivo
HSP70 [4] = assay: HSP70 induction in rat hippocampus with or without kainic acid injection (immunohistochemistry, western blot); format: in vivo; details: KA stereotactically injected in hippocampus; localized in the injection site
Protocol: Stereotactic injections of Kainic acid into rat hippocampus tissues led to increased damages in neurons. […] Under this condition, neurons and HSP70 expression was stained by immunohistochemistry techniques. HSP70 expression was induced in a very specific area only that KA was injected. The induced area was not stained by HSP70 antibody when KA was not injected, but CNS-102 was dosed.
HSP70 induction by dosing CNS-102 in the absence of the KA injection was limited in western blot experiments using hippocampus lysates. 120% or 130% of HSP70 expression could be seen by comparing those of vehicle dosing control experiments.

[5] = 10 nM, CNS-101/CNS-102 experiment
[6] = 100 nM, CNS-101/CNS-102 experiment
[7] = 100 nM, CNS-102/CNS-103 experiment
[8] = 1000 nM, CNS-101/CNS-102 experiment
[9] = 1000 nM, CNS-102/CNS-103 experiment
[10] = 10000 nM, CNS-101/CNS-102 experiment

## CC(=O)CC/C=C(\C)CC/C=C(\C)CC/C=C(\C)CCC=C(C)C [CNS-102]
[1]; 480 min, average
  Plasma Concentration of CNS-102: 489.7 ng/mL
[1]; 720 min, average
  Plasma Concentration of CNS-102: 47.2 ng/mL
[1]; 720 min, individual rats 4-6, BQL set to zero
  Plasma Concentration of CNS-102: 0 ng/mL
[1]; 1440 min, average
  Plasma Concentration of CNS-102: 0.0 ng/mL
[1]; 1440 min, individual rats 4-6, BQL set to zero
  Plasma Concentration of CNS-102: 0 ng/mL
[1]; average
  AUC(0-inf): 204878 ng·min/mL
  AUC(0-last): 189114 ng·min/mL
  Cmax: 752.9 ng/mL
  Tmax: 340 min
  t1/2: 1.72 h
[1]; individual rats 4-6, 24 mg/kg
  AUC(0-inf): 234242 ng·min/mL and 157666 ng·min/mL and 222724 ng·min/mL
  AUC(0-last): 214144 ng·min/mL and 130474 ng·min/mL and 222724 ng·min/mL
  Cmax: 768 ng/mL and 898.2 ng/mL and 592.5 ng/mL
  F (0-inf): 56.1% and 37.8% and 53.4%
  F (0-last): 93.0% and 56.7% and 96.7%
  Tmax: 480 min (2×) and 60 min
  t1/2: 1.64 h and 2.895 h and 0.613 h
[2]; 10 nM
  Ratio % of neurite outgrowth, CNS-102 to CNS-101: 113.6%
[2]; [5]
  Protection %: 16.6%
  ratio of counts relative to no inhibition: 0.354
[2]; 10 nM, CNS-101/CNS-102 experiment, no inhibition 95.5, PBS 21.5
  Median Counts (cells with neurite outgrowth): 33.8
[2]; 100 nM
  Ratio % of neurite outgrowth, CNS-102 to CNS-101: 112.1%
  Ratio % of neurite outgrowth, CNS-102 to CNS-103: 114.3%
[2]; [6]
  Protection %: 29.6%
  ratio of counts relative to no inhibition: 0.454
[2]; 100 nM, CNS-101/CNS-102 experiment, no inhibition 95.5, PBS 21.5
  Median Counts (cells with neurite outgrowth): 43.4
[2]; [7]
  Protection %: 35.9%
  ratio of counts relative to no inhibition: 0.556
[2]; 100 nM, CNS-102/CNS-103 experiment, no inhibition 60.3, PBS 18.5
  Median Counts (cells with neurite outgrowth): 33.5
[2]; 1000 nM
  Ratio % of neurite outgrowth, CNS-102 to CNS-101: 122.7%
  Ratio % of neurite outgrowth, CNS-102 to CNS-103: 83.0%
[2]; [8]
  Protection %: 39.9%
  ratio of counts relative to no inhibition: 0.534
[2]; 1000 nM, CNS-101/CNS-102 experiment, no inhibition 95.5, PBS 21.5
  Median Counts (cells with neurite outgrowth): 51.0
[2]; [9]
  Protection %: 12.7%
  ratio of counts relative to no inhibition: 0.395
[2]; 1000 nM, CNS-102/CNS-103 experiment, no inhibition 60.3, PBS 18.5
  Median Counts (cells with neurite outgrowth): 23.8
[2]; 10000 nM
  Ratio % of neurite outgrowth, CNS-102 to CNS-101: 137.8%
[2]; [10]
  Protection %: 22.6%
  ratio of counts relative to no inhibition: 0.400
[2]; 10000 nM, CNS-101/CNS-102 experiment, no inhibition 95.5, PBS 21.5
  Median Counts (cells with neurite outgrowth): 38.2
[2]; CNS-101/CNS-102 experiment (FIG. 4A)
  maximum protection: ~40%
[2]; CNS-102/CNS-103 experiment (FIG. 4B)
  maximum protection: ~36%
HSP70 [3]; 24 h
  HSP70 mean fold change (CNS-102 treated/PBS treated), mean ± SD: 1.18 ± 0.01
HSP70 [3]; 48 h
  HSP70 mean fold change (CNS-102 treated/PBS treated), mean ± SD: 1.48 ± 0.02
HSP70 [3]; 72 h
  HSP70 mean fold change (CNS-102 treated/PBS treated), mean ± SD: 1.81 ± 0.01
HSP70 [3]; 96 h
  HSP70 mean fold change (CNS-102 treated/PBS treated), mean ± SD: 1.58 ± 0.03
SOD1 mice; CNS-102 12 mg/kg or riluzole 8 mg/kg daily oral from P38, vehicle 125.0
  Median Survival: 133.0 days
SOD1 mice; parametric regression (gamma distribution)
  % Increase in median time to death compared to vehicle group: 9% and 9.5%
HSP70 [4]
  HSP70 induction: strong induction of HSP70
